Reference: patent US9259401B2 (priority 2011, dated 2016)
Several values for one entry are separate records, joined by “and”; a condition that tells them apart may be missing. Equal values may be shown once. Read-outs that look alike come from different tables or passages of the source.

Legend:
[1] = Comparative bioavailability study, curcumin in plasma by HPLC; type: in vivo, human; conditions: for Mean plasma concentration: listed as Curcumin Powder 95%; for Individual plasma concentration: single oral dose equivalent to 1 gm curcuminoids
Description: The bioavailability study was conducted at Amala Cancer Institute, Thrissur, Kerala on a request from the applicant. Twelve healthy subjects were recruited for the purpose of the study. […] The study design chosen was a balanced, open label, two-treatment, two-period, single dose, bioavailability study.
12 Subject were recruited for the study and were asked to avoid consumption of food containing rich turmeric powder or extract for 24 hours preceding each period. […] The following supplements were used for the purpose of the study:
Each of the supplements were administered with 240 ml water in each period.
The study design is open label, two-treatment, two-period, single dose, bioavailability study. […] Subjects were asked to avoid consumption of food containing rich turmeric powder or extract for 24 hours preceding each period. […] There was a washout period of at least 2 weeks between the doses.
Blood was drawn from each subject just prior to dosing and at 1, 2, 4, 6, 8, and 24 hours post-dose. The total blood loss for each subject was approximately 70 ml and there were totally 14 blood samples of 5 ml each time point throughout the study.
The primary efficacy variables were measured in this study were Cmax, AUCO-t and AUCO-∞ and the secondary efficacy variable were as follows Tmax, T½ and Kel. The statistical evaluation was done by Winnonlin Software 5.0.1 version. […] Tmax and T½ were also be recorded and compared for the two products.
Preparation of Sample (Spiked with Standard Solution E): The frozen plasma samples were allowed to attain the room temperature. 1000 μl of the plasma sample was pipetted out and spiked with 100 μl of spiking standard solution E. This solution was vortex for 1 minute and 3.0 ml ethyl acetate (HPLC Grade) was added to the above solutions. The solution was vortex again for 1 minute with the aid of cyclomixer and allowed to settle down at room temperature.
1.5 ml of the upper ethyl acetate layer was pipetted out and evaporated to dryness using vacuum. The dried sample was dissolved in 600 μl of methanol (HPLC Grade) using vortex mixer. This solution was filtered by 0.2 micron membrane filter paper. 100 μl of these filtered solution was injected in HPLC (Waters Alliance System with 2996 PDA detector in isocratic mode). The column used was LiChrospher 100 RP-18 (250×4.6 mm 5 μM particle size) with methanol as the mobile phase and the detection wavelength was 420 nm. To identify and quantized curcuminoids in plasma the chromatographic peaks were compared with standard solution.

rats = conditions: 1.25, 2.5, 5 and 10 mg/kg P.O., chronic treatment 14 days; cited from earlier work
Norepinephrine = test: Biological amine levels by HPLC-ECD after 45 min: norepinephrine; type: in vivo, mice
Description: Test Substances: […] Animals: Male Laca mice. Test Procedures: Animals were sacrificed after 45 min of drug administration similar to the time period of behavioral observations. HPLC-ECD detector: Mobile phase—Phosphate buffer: […] • Column—ODS-3 C-18 column (250×4.6 mm I.D.; 5 μm particle size)

[2] = test system: serotonin (5-HT) as well as dopamine levels; conditions: mice; cited from earlier work
[3] = individual subjects, 1 gm curcuminoids oral, listed as Curcumin Extract Powder (min 95% Curcuminoids)

COc1cc(C=CC(=O)CC(=O)C=Cc2ccc(O)c(OC)c2)ccc1O [Curcumin, 1,7-bis(4-hydroxy-3-methoxyphenyl)-1,6-heptadien-3,5-dione]
concentration at 2 hr ([1]; human, plasma, po, 1 gm, time 2 hr, 1 gm curcuminoids oral, read-out: Min plasma concentration): 8.39 ng/mL | concentration at 4 hr ([1]; human, plasma, po, 1 gm, time 4 hr, 1 gm curcuminoids oral, read-out: Geometric Mean plasma concentration): 4.89 ng/mL | concentration at 4 hr ([1]; human, plasma, po, 1 gm, time 4 hr, 1 gm curcuminoids oral, read-out: Max plasma concentration): 15.6 ng/mL | concentration at 4 hr ([1]; human, plasma, po, 1 gm, time 4 hr, 1 gm curcuminoids oral, read-out: Mean plasma concentration): 7.07 ng/mL | concentration at 4 hr ([1]; human, plasma, po, 1 gm, time 4 hr, 1 gm curcuminoids oral, read-out: Median plasma concentration): 7.09 ng/mL | concentration at 4 hr ([1]; human, plasma, po, 1 gm, time 4 hr, 1 gm curcuminoids oral, read-out: Min plasma concentration): 0.75 ng/mL | concentration at 6 hr ([1]; human, plasma, po, 1 gm, time 6 hr, 1 gm curcuminoids oral, read-out: Geometric Mean plasma concentration): 3.03 ng/mL | concentration at 6 hr ([1]; human, plasma, po, 1 gm, time 6 hr, 1 gm curcuminoids oral, read-out: Max plasma concentration): 4.87 ng/mL | concentration at 6 hr ([1]; human, plasma, po, 1 gm, time 6 hr, 1 gm curcuminoids oral, read-out: Mean plasma concentration): 3.23 ng/mL | concentration at 6 hr ([1]; human, plasma, po, 1 gm, time 6 hr, 1 gm curcuminoids oral, read-out: Median plasma concentration): 2.77 ng/mL | concentration at 6 hr ([1]; human, plasma, po, 1 gm, time 6 hr, 1 gm curcuminoids oral, read-out: Min plasma concentration): 2.05 ng/mL | concentration at 8 hr ([1]; human, plasma, po, 1 gm, time 8 hr, 1 gm curcuminoids oral, read-out: Geometric Mean plasma concentration): 6.56 ng/mL | concentration at 8 hr ([1]; human, plasma, po, 1 gm, time 8 hr, 1 gm curcuminoids oral, read-out: Max plasma concentration): 36.1 ng/mL | concentration at 8 hr ([1]; human, plasma, po, 1 gm, time 8 hr, 1 gm curcuminoids oral, read-out: Mean plasma concentration): 18.6 ng/mL | concentration at 8 hr ([1]; human, plasma, po, 1 gm, time 8 hr, 1 gm curcuminoids oral, read-out: Median plasma concentration): 18.6 ng/mL | concentration at 8 hr ([1]; human, plasma, po, 1 gm, time 8 hr, 1 gm curcuminoids oral, read-out: Min plasma concentration): 1.19 ng/mL | concentration at 24 hr ([1]; human, plasma, po, 1 gm, time 24 hr, 1 gm curcuminoids oral, read-out: Geometric Mean plasma concentration): 2.23 ng/mL | concentration at 24 hr ([1]; human, plasma, po, 1 gm, time 24 hr, 1 gm curcuminoids oral, read-out: Max plasma concentration): 11.5 ng/mL | concentration at 24 hr ([1]; human, plasma, po, 1 gm, time 24 hr, 1 gm curcuminoids oral, read-out: Mean plasma concentration): 4.27 ng/mL | concentration at 24 hr ([1]; human, plasma, po, 1 gm, time 24 hr, 1 gm curcuminoids oral, read-out: Median plasma concentration): 1.93 ng/mL | concentration at 24 hr ([1]; human, plasma, po, 1 gm, time 24 hr, 1 gm curcuminoids oral, read-out: Min plasma concentration): 0.53 ng/mL | AUCINF [1, 3]: 87.74 ng·h/mL and 77.46 ng·h/mL | AUCT [1, 3]: 38.31 ng·h/mL and 53.25 ng·h/mL and 31.24 ng·h/mL and 82.17 ng·h/mL and 175.60 ng·h/mL and 137.89 ng·h/mL and 198.27 ng·h/mL and 73.46 ng·h/mL | Cmax [1, 3]: 2.48 ng/mL and 7.99 ng/mL and 15.62 ng/mL and 8.39 ng/mL and 9.09 ng/mL and 11.49 ng/mL and 36.11 ng/mL and 14.94 ng/mL | Thalf [1, 3]: 11.39 h and 5.95 h and 5.21 h | Tmax [1, 3]: 1.00 h and 4.00 h and 2.00 h and 24.00 h and 8.00 h | Mean plasma concentration ([1]; time 0 hr (prior to dosing), 1 gm curcuminoids oral): 0.0000 ng/mL | Individual plasma concentration ([1]; time 0.00 hr (prior to dosing), individual subjects): 0.00 ng/mL | Mean plasma concentration ([1]; time 1 hr, 1 gm curcuminoids oral): 5.4638 ng/mL | Individual plasma concentration ([1]; time 1.00 hr, individual subjects, listed as Curcumin Extract Powder 95%): 2.48 ng/mL and 7.99 ng/mL and 0.84 ng/mL and 0.05 ng/mL and 20.58 ng/mL and 0.85 ng/mL | Mean plasma concentration ([1]; time 2 hr, 1 gm curcuminoids oral): 14.3842 ng/mL | Individual plasma concentration ([1]; time 2.00 hr, individual subjects, listed as Curcumin Extract Powder 95%): 8.39 ng/mL and 19.82 ng/mL and 14.94 ng/mL | Mean plasma concentration ([1]; time 4 hr, 1 gm curcuminoids oral): 7.0711 ng/mL | Individual plasma concentration ([1]; time 4.00 hr, individual subjects, listed as Curcumin Extract Powder 95%): 0.75 ng/mL and 4.53 ng/mL and 15.62 ng/mL and 7.09 ng/mL and 7.36 ng/mL | Mean plasma concentration ([1]; time 6 hr, 1 gm curcuminoids oral): 3.2316 ng/mL | Individual plasma concentration ([1]; time 6.00 hr, individual subjects, listed as Curcumin Extract Powder 95%): 2.05 ng/mL and 4.87 ng/mL and 2.77 ng/mL | Mean plasma concentration ([1]; time 8 hr, 1 gm curcuminoids oral): 18.6496 ng/mL | Individual plasma concentration ([1]; time 8.00 hr, individual subjects, listed as Curcumin Extract Powder 95%): 1.19 ng/mL and 36.11 ng/mL | Mean plasma concentration ([1]; time 24 hr, 1 gm curcuminoids oral): 4.2698 ng/mL | Individual plasma concentration ([1]; time 24.00 hr, individual subjects, listed as Curcumin Extract Powder 95%): 2.47 ng/mL and 1.39 ng/mL and 0.65 ng/mL and 9.09 ng/mL and 11.49 ng/mL and 0.53 ng/mL | Immobility time in the forced swim test (rats): reduced the immobility time | Norepinephrine % increase w.r.t Control (Norepinephrine; dose 100 mg/kg): 67.90% | Norepinephrine % increase w.r.t Fluoxetine (Norepinephrine; dose 100 mg/kg vs fluoxetine 10 mg/kg): 19.18% | Norepinephrine (ng/mg tissue) (Norepinephrine; dose 100 mg/kg, sacrificed after 45 min, n = 5): 4.97 ± 0.33a ng/mg tissue | Serotonin (5-HT) and dopamine levels [2]: increases serotonin (5-HT) as well as dopamine levels
